In US6737383B1, “Herbicidal oxadiazolidines” (priority 1999, dated 2004):

Assays:
bedstraw = experiment: Test B pre/postemergence bedstraw; type: in vivo, Galium aparine
Summary of the method: (§1)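 Test chemicals in a non-phytotoxic solvent mixture with surfactant were sprayed preemergence onto planted seeds and postemergence onto plants 2 to 18 cm tall (1- to 4-leaf stage). After twelve to sixteen days in a greenhouse, injury was visually rated against untreated controls from 0 (no effect) to 10 (complete control).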

blackgrass = experiment: Test B pre/postemergence blackgrass; type: in vivo, Alopecurus myosuroides
Summary of the method: as §1

surinam grass = experiment: Test B pre/postemergence surinam grass; type: in vivo, Brachiaria decumbens; conditions: Postemergence
Summary of the method: as §1

cocklebur = experiment: Test B pre/postemergence cocklebur; type: in vivo, Xanthium strumarium
Summary of the method: as §1

corn = experiment: Test B pre/postemergence corn; type: in vivo, Zea mays
Summary of the method: as §1

crabgrass = experiment: Test B pre/postemergence crabgrass; type: in vivo, Digitaria sanguinalis
Summary of the method: as §1

giant foxtail = experiment: Test B pre/postemergence giant foxtail; type: in vivo, Setaria faberii
Summary of the method: as §1

morningglory = experiment: Test B pre/postemergence morningglory; type: in vivo, Ipomoea hederacea
Summary of the method: as §1

pigweed = experiment: Test B pre/postemergence pigweed; type: in vivo, Amaranthus retroflexus
Summary of the method: as §1

rape = experiment: Test B pre/postemergence rape; type: in vivo, Brassica napus
Summary of the method: as §1

soybean = experiment: Test B pre/postemergence soybean; type: in vivo, Glycine max
Summary of the method: as §1

sugar beet = experiment: Test B pre/postemergence sugar beet; type: in vivo, Beta vulgaris
Summary of the method: as §1

velvetleaf = experiment: Test B pre/postemergence velvetleaf; type: in vivo, Abutilon theophrasti
Summary of the method: as §1

wheat = experiment: Test B pre/postemergence wheat; type: in vivo, Triticum aestivum
Summary of the method: as §1

wild oat = experiment: Test B pre/postemergence wild oat; type: in vivo, Avena fatua
Summary of the method: as §1

purple nutsedge = experiment: Test B pre/postemergence purple nutsedge; type: in vivo, Cyperus rotundus
Summary of the method: as §1

[1] = Postemergence, Rate 62 g/ha, scale 0 to 10, 0 is no effect, 10 is complete control
[2] = Postemergence, Rate 125 g/ha, scale of 0 to 10 where 0 is no effect and 10 is complete control
[3] = Preemergence, Rate 125 g/ha, scale of 0 to 10 where 0 is no effect and 10 is complete control
[4] = Preemergence, Rate 250 g/ha, scale 0 (no effect) to 10 (complete control)
[5] = Rate 62 g/ha, Preemergence, scale 0 to 10
[6] = Rate 250 g/ha, Postemergence, scale 0 to 10, 0 is no effect, 10 is complete control
[7] = Rate 500 g/ha, Postemergence, scale 0 to 10, 0 is no effect, 10 is complete control
[8] = Rate 500 g/ha, Preemergence, scale 0 to 10 (0 no effect, 10 complete control)

In the case of `CC(C)N(C(=O)n1oc(=O)n(C(C)C(=S)N(C)C)c1=O)c1ccc(F)cc1F` (stereo not shown) [Compound 739], the “Plant response rating, Bedstraw” value (bedstraw; [1]) is reported as 3, the “Bedstraw plant response rating” value (bedstraw; [2]) is reported as 3 and the “Plant response rating, Bedstraw” value (bedstraw; [3]) is reported as 10. The “Bedstraw plant response rating” value (bedstraw; [4]) was 10, the “Bedstraw plant response rating” value (bedstraw; [5]) was 0 and the “Bedstraw plant response rating” value (bedstraw; [6]) was 4. For the same molecule, the “Bedstraw plant response rating” value (bedstraw; [7]) was 6, the “Bedstraw plant response rating” value (bedstraw; [8]) was 10 and the “Plant response rating, Blackgrass” value (blackgrass; [1]) was 0. The “Blackgrass plant response rating” value (blackgrass; [2]) was 3, the “Plant response rating, Blackgrass” value (blackgrass; [3]) was 3 and the “Blackgrass plant response rating” value (blackgrass; [4]) was 3. For the same molecule, the “Blackgrass plant response rating” value (blackgrass; [5]) was 2, the “Blackgrass plant response rating” value (blackgrass; [6]) was 3 and the “Blackgrass plant response rating” value (blackgrass; [7]) was 6. The “Blackgrass plant response rating” value (blackgrass; [8]) was 10, the “Plant response rating, B. signalgrass” value (surinam grass; Rate 62 g/ha, scale 0 to 10, 0 is no effect, 10 is complete control) was 0 and the “B. signalgrass plant response rating” value (surinam grass; Rate 125 g/ha, scale of 0 to 10 where 0 is no effect and 10 is complete control) was 2. For the same molecule, the “B. signalgrass plant response rating” value (surinam grass; Rate 250 g/ha, scale 0 to 10, 0 is no effect, 10 is complete control) was 2, the “B. signalgrass plant response rating” value (surinam grass; Rate 500 g/ha, scale 0 to 10, 0 is no effect, 10 is complete control) was 7 and the “Plant response rating, Cocklebur” value (cocklebur; [1]) was 2. For the same molecule, the “Cocklebur plant response rating” value (cocklebur; [2]) was 2, the “Plant response rating, Cocklebur” value (cocklebur; [3]) was 0 and the “Cocklebur plant response rating” value (cocklebur; [4]) was 0. The “Cocklebur plant response rating” value (cocklebur; [5]) was 0, the “Cocklebur plant response rating” value (cocklebur; [6]) was 2 and the “Cocklebur plant response rating” value (cocklebur; [7]) was 3. The “Cocklebur plant response rating” value (cocklebur; [8]) was 0, the “Plant response rating, Corn” value (corn; [1]) was 0 and the “Corn plant response rating” value (corn; [2]) was 0. For the same molecule, the “Plant response rating, Corn” value (corn; [3]) was 0, the “Corn plant response rating” value (corn; [4]) was 2 and the “Corn plant response rating” value (corn; [5]) was 0. For the same molecule, the “Corn plant response rating” value (corn; [6]) was 0, the “Corn plant response rating” value (corn; [7]) was 0 and the “Corn plant response rating” value (corn; [8]) was 2. For the same molecule, the “Plant response rating, Crabgrass” value (crabgrass; [1]) was 4, the “Crabgrass plant response rating” value (crabgrass; [2]) was 9 and the “Plant response rating, Crabgrass” value (crabgrass; [3]) was 2. For the same molecule, the “Crabgrass plant response rating” value (crabgrass; [4]) was 9, the “Crabgrass plant response rating” value (crabgrass; [5]) was 2 and the “Crabgrass plant response rating” value (crabgrass; [7]) was 9. The “Crabgrass plant response rating” value (crabgrass; [8]) was 10, the “Plant response rating, Giant foxtail” value (giant foxtail; [1]) was 7 and the “Giant foxtail plant response rating” value (giant foxtail; [2]) was 9. The “Plant response rating, Giant foxtail” value (giant foxtail; [3]) was 9, the “Giant foxtail plant response rating” value (giant foxtail; [4]) was 9 and the “Giant foxtail plant response rating” value (giant foxtail; [5]) was 9. For the same molecule, the “Giant foxtail plant response rating” value (giant foxtail; [6]) was 9, the “Giant foxtail plant response rating” value (giant foxtail; [7]) was 9 and the “Giant foxtail plant response rating” value (giant foxtail; [8]) was 10. For the same molecule, the “Plant response rating, Morningglory” value (morningglory; [1]) was 6, the “Plant response rating, Morningglory” value (morningglory; [3]) was 0 and the “Morningglory plant response rating” value (morningglory; [4]) was 0. The “Morningglory plant response rating” value (morningglory; [5]) was 0, the “Morningglory plant response rating” value (morningglory; [6]) was 6 and the “Morningglory plant response rating” value (morningglory; [7]) was 8. The “Morningglory plant response rating” value (morningglory; [8]) was 0, the “Plant response rating, Redroot pigweed” value (pigweed; [1]) was 0 and the “Redroot pigweed plant response rating” value (pigweed; [2]) was 3. The “Plant response rating, Redroot pigweed” value (pigweed; [3]) was 2, the “Redroot pigweed plant response rating” value (pigweed; [4]) was 9 and the “Redroot pigweed plant response rating” value (pigweed; [5]) was 2. The “Redroot pigweed plant response rating” value (pigweed; [6]) was 3, the “Redroot pigweed plant response rating” value (pigweed; [7]) was 5 and the “Redroot pigweed plant response rating” value (pigweed; [8]) was 10. The “Plant response rating, Rape” value (rape; [1]) was 0, the “Rape plant response rating” value (rape; [2]) was 0 and the “Plant response rating, Rape” value (rape; [3]) was 0. The “Rape plant response rating” value (rape; [4]) was 0, the “Rape plant response rating” value (rape; [5]) was 0 and the “Rape plant response rating” value (rape; [6]) was 0. For the same molecule, the “Rape plant response rating” value (rape; [7]) was 2, the “Rape plant response rating” value (rape; [8]) was 2 and the “Plant response rating, Soybean” value (soybean; [1]) was 3. For the same molecule, the “Soybean plant response rating” value (soybean; [2]) was 3, the “Plant response rating, Soybean” value (soybean; [3]) was 0 and the “Soybean plant response rating” value (soybean; [4]) was 0. The “Soybean plant response rating” value (soybean; [5]) was 0, the “Soybean plant response rating” value (soybean; [6]) was 4 and the “Soybean plant response rating” value (soybean; [7]) was 5. The “Soybean plant response rating” value (soybean; [8]) was 0, the “Plant response rating, Sugarbeets” value (sugar beet; [1]) was 3 and the “Sugarbeets plant response rating” value (sugar beet; [2]) was 3. For the same molecule, the “Plant response rating, Sugarbeets” value (sugar beet; [3]) was 2, the “Sugarbeets plant response rating” value (sugar beet; [4]) was 2 and the “Sugarbeets plant response rating” value (sugar beet; [5]) was 2. The “Sugarbeets plant response rating” value (sugar beet; [6]) was 3, the “Sugarbeets plant response rating” value (sugar beet; [7]) was 4 and the “Sugarbeets plant response rating” value (sugar beet; [8]) was 4. For the same molecule, the “Plant response rating, Velvetleaf” value (velvetleaf; [1]) was 0, the “Velvetleaf plant response rating” value (velvetleaf; [2]) was 0 and the “Plant response rating, Velvetleaf” value (velvetleaf; [3]) was 0. The “Velvetleaf plant response rating” value (velvetleaf; [4]) was 2, the “Velvetleaf plant response rating” value (velvetleaf; [5]) was 0 and the “Velvetleaf plant response rating” value (velvetleaf; [6]) was 0. The “Velvetleaf plant response rating” value (velvetleaf; [7]) was 3, the “Velvetleaf plant response rating” value (velvetleaf; [8]) was 3 and the “Plant response rating, Wheat” value (wheat; [1]) was 0. For the same molecule, the “Wheat plant response rating” value (wheat; [2]) was 0, the “Plant response rating, Wheat” value (wheat; [3]) was 0 and the “Wheat plant response rating” value (wheat; [4]) was 0. For the same molecule, the “Wheat plant response rating” value (wheat; [5]) was 0, the “Wheat plant response rating” value (wheat; [6]) was 2 and the “Wheat plant response rating” value (wheat; [7]) was 6. The “Wheat plant response rating” value (wheat; [8]) was 3, the “Plant response rating, Wild oats” value (wild oat; [1]) was 0 and the “Wild oats plant response rating” value (wild oat; [2]) was 0. For the same molecule, the “Plant response rating, Wild oats” value (wild oat; [3]) was 0, the “Wild oats plant response rating” value (wild oat; [4]) was 0 and the “Wild oats plant response rating” value (wild oat; [5]) was 0. The “Wild oats plant response rating” value (wild oat; [6]) was 0, the “Wild oats plant response rating” value (wild oat; [7]) was 0 and the “Wild oats plant response rating” value (wild oat; [8]) was 4. The “Plant response rating, Nutsedge” value (purple nutsedge; [1]) was 0, the “Plant response rating, Nutsedge” value (purple nutsedge; [3]) was 0 and the “Nutsedge plant response rating” value (purple nutsedge; [4]) was 0. For the same molecule, the “Nutsedge plant response rating” value (purple nutsedge; [5]) was 0, the “Nutsedge plant response rating” value (purple nutsedge; [6]) was 0 and the “Nutsedge plant response rating” value (purple nutsedge; [7]) was 3. For the same molecule, the “Nutsedge plant response rating” value (purple nutsedge; [8]) was 0.
